Experimental data as given in ChEMBL document CHEMBL1201862, “PubChem BioAssay data set” (2004).
Where a name gives a salt, the structure may show the parent alone. Active and inactive are the calls of the source.

What was measured:
[1] = viability loss in human Jurkat cells – cell-based, luminescence, cytotoxicity control for P. falciparum gametocyte viability project, dose response (AID 1117277); assay type: functional;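 note: potency reflects loss of cellular ATP meaning fewer viable cells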
[2] = viability inhibitors of stage V gametocytes – luminescence, dose response (AID 1117278); assay type: functional, cell-based;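 note: gametocytes exposed to compound for 24 hours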
[3] = blockade of melanocortin 4 receptor signaling – cell-based, plate reader, cherry pick, counter-screen for LGR2 antagonist project, dose response (AID 743444); assay type: functional;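 note: transfected HEK 293 cells stimulated with alpha-MSH peptide; potency of inhibitors of the alpha-MSH evoked signal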
cells [4] = assay type: functional, cell-based
[5] = blockers of bursicon-stimulated LGR2 cAMP reporter – cell-based, HEK293, CRE-luciferase reporter, cherry pick, set 2, dose response (AID 743343); assay type: functional;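 note: transfected cells were stimulated with diluted bursicon conditioned medium after compound addition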
[6] = target: T1, Trace amine-associated receptor 1 (Homo sapiens, UniProt Q96RJ0); test: Counterscreen for agonists of the human trace amine associated receptor 1 (hTAAR1): Fluorescence-based cell-based high throughput dose response assay to identify hTAAR1 agonist that also desensitize TAAR1 receptor response.; assay type: functional
T1 sequence (Q96RJ0 whole entry): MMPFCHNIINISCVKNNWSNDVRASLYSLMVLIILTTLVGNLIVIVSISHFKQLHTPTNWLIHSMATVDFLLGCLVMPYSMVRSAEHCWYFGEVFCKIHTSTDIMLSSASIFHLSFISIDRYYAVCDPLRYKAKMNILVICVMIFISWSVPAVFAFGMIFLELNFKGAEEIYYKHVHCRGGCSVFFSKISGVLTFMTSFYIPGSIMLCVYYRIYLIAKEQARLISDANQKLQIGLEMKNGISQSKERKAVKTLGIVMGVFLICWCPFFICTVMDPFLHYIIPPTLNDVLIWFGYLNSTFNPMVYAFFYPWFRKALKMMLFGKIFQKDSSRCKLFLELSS

cells [7] = assay type: functional, cell-based; remark: listed apart in the source
[8] = A549 cell cytotoxicity, dose response, cytotoxicity control, plate reader, cherry-pick, antagonist series (AID 743412); assay type: functional, cell-based
[9] = viability loss in HEK293 cells – cell-based, plate reader, cherry-picked samples, cytotoxicity control, dose response (AID 743446); assay type: functional
[10] = toxicity toward HepG2 liver cells – cell-based, plate reader, cherry-pick, antagonist series, cytotoxicity control, dose response (AID 743416); assay type: functional
[11] = target: T1, Trace amine-associated receptor 1; test: Fluorescence-based cell-based high throughput dose response assay to identify agonists of the human trace amine associated receptor 1 (TAAR1).; assay type: functional
[12] = target: T2, DNA repair protein RAD52 homolog (Homo sapiens, UniProt P43351); assay type: functional, biochemical
T2 sequence (P43351 whole entry): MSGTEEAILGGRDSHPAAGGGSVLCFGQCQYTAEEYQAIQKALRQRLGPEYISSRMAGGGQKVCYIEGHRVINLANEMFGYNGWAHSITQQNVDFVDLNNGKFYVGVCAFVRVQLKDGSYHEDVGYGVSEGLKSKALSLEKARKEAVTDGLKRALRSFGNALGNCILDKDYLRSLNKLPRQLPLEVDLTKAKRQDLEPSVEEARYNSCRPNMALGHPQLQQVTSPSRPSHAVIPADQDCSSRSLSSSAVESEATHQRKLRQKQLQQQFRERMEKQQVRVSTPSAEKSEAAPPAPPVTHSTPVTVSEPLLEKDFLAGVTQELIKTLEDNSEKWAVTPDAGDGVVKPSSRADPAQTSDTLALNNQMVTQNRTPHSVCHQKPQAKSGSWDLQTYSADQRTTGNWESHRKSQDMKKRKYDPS

[13] = target: T3, Oxysterols receptor LXR-beta (Homo sapiens, UniProt P55055); assay type: functional, cell-based;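 note: agonist activity at LXR measured by a cell-based luminescence readout across a dose range, run as a counterscreen for daf-12 agonists; HEK293 cells with Gal4-LXR fusion and GAL4-driven luciferase reporter; potency for activation of Gal4-LXR reporter so compounds are agonists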
T3 sequence (P55055 whole entry): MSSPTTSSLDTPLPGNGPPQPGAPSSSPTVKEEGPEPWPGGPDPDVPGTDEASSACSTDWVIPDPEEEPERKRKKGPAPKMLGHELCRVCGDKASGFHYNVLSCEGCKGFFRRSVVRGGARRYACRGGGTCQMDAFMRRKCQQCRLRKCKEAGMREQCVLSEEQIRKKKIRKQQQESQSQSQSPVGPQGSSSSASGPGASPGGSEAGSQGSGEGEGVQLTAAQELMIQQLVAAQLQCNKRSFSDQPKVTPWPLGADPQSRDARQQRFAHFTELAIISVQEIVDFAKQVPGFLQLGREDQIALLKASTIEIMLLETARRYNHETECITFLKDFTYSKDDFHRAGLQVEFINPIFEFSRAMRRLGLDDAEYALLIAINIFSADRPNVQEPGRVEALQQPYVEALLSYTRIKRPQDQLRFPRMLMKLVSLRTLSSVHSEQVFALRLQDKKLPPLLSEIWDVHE

Cytochrome P450 3A4 = Cytochrome P450 3A4 (Homo sapiens, UniProt P08684);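 note: CYP3A4 tested as one member of a cytochrome P450 panel screen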
Protein skinhead-1 = target: T4, Protein skinhead-1 (Caenorhabditis elegans, UniProt P34707); assay type: functional
T4 sequence (P34707 whole entry): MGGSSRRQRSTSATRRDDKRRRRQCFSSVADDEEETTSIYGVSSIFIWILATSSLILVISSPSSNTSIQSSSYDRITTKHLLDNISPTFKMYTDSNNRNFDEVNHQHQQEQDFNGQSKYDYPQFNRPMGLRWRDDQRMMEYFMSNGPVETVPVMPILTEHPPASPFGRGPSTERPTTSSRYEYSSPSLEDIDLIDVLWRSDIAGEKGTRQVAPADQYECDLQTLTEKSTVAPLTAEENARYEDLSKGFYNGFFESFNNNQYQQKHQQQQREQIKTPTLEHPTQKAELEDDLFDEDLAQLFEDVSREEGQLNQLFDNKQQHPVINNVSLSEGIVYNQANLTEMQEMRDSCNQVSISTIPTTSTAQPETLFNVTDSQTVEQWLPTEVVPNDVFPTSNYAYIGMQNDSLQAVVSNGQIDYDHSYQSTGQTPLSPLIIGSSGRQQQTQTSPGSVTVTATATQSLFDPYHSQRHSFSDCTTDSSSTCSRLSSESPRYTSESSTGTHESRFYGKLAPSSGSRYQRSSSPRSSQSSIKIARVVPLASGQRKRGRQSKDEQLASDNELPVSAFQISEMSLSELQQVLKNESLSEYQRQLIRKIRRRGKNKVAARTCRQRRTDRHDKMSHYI

[14] = luciferase reporter signal suppression in cells – H4 neuroglioma cells, luminescence, dose response (AID 1990); assay type: functional, cell-based
[15] = Luminescence Cell-Based Dose Response HTS to Identify Inhibitors of 5'UTR Stem-Loop Driven Prion Protein mRNA Translation in H4 Neuroglioblastoma Cells. [Related pubchem assays: 1827 (Project Summary), 1813 (Primary HTS)]; assay type: functional
[16] = alpha-synuclein stem-loop luciferase translation blockers – H4 neuroglioma cells, luminescence, confirmation (AID 1988); assay type: functional, cell-based
[17] = target: T5, Heat shock factor protein 1 (Mus musculus, UniProt P38532); test: decrease of HSF1-responsive luciferase luminescence – cell-based, NIH3T3, dose retest, confirmation (AID 2382); assay type: functional;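 note: NIH3T3 fibroblasts with HSF1-driven luciferase reporter stressed by proteasome inhibitor MG132; luminescence from HSF1-driven luciferase expression after 8 hours of MG132 stress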
T5 sequence (P38532 whole entry): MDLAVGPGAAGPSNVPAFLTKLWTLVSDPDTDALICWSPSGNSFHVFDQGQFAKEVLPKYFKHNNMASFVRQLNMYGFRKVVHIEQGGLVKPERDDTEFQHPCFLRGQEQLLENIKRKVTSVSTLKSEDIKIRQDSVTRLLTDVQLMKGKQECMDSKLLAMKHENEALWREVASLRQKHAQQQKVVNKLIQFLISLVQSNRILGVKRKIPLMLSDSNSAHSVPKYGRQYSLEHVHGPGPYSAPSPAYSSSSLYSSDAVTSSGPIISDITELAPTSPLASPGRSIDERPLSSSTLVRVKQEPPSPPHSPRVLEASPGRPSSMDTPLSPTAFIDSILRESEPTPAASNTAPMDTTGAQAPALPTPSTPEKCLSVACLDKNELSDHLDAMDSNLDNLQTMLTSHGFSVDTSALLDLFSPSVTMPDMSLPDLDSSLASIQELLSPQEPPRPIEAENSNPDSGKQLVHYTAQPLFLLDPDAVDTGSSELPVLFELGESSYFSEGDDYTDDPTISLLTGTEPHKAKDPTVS

[18] = blockers of HIV-1 envelope-mediated cell-cell fusion – cherry-pick, dose response (AID 652057); assay type: functional, cell-based
[19] = off-target signal loss in HeLa-CEM21 co-culture – HeLa F-luc CTL cells, cherry-picked, counter-screen for HIV-1 Env fusion inhibitor project, dose response (AID 652040); assay type: functional, cell-based;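 note: potency for signal decrease marking cytotoxic or nonspecific inhibition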
[20] = HIV-1 AD8 envelope cell-cell fusion blockers – cherry-pick, dose response (AID 652062); assay type: functional, cell-based;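 note: luciferase signal from cell-cell fusion driven by HIV-1 clade B AD8 Env; potency is for inhibitors of fusion seen as a drop in luminescence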
[21] = blockers of HIV-1 ZM109 envelope-driven cell-cell fusion – HeLa effector, CEM target cells, luciferase, cherry-pick, dose response (AID 652058); assay type: functional, cell-based;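 note: luciferase signal from HIV-1 Env mediated cell-cell fusion of effector and target cells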
[22] = viability loss in CEM21 cells – cell-based, CellTiter-Glo luminescence, cherry-picked, cytotoxicity control for viral fusion inhibitor project, dose response (AID 652042); assay type: functional;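 note: potency for signal decrease meaning cytotoxicity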
[23] = toxicity to human hepatoma HepG2 cells – cell-based, cherry-picked samples, cytotoxicity control, dose response (AID 1159577); assay type: functional
[24] = P. falciparum Dd2 growth inhibitors, dose response, SYBR Green, cherry-picked samples (AID 1159567); assay type: functional, cell-based
Cytochrome P450 2C9 = Cytochrome P450 2C9 (Homo sapiens, UniProt P11712)
[25] = loss of viability in HepG2 cells – cell-based, CellTiter-Glo, cherry-picked, cytotoxicity control for Shn3 inhibitor project, dose response (AID 624134); assay type: functional
[26] = target: T6, Endoribonuclease toxin MazF (Escherichia coli K-12, UniProt P0AE70); test: substrate-only fluorescence increase artefacts – biochemical, single-stranded RNase substrate, counter-screen for MazEF activator project, dose response (AID 588502); assay type: functional
T6 sequence (P0AE70 whole entry): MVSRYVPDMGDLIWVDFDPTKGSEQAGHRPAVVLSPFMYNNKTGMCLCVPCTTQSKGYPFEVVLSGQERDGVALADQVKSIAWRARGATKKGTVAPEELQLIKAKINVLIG

[27] = target: T6, Endoribonuclease toxin MazF; test: activation of MazEF endoribonuclease cleavage – biochemical, fluorescence, single-stranded RNA substrate, uHTS hits, dose response (AID 588481); assay type: functional
Albumin = Albumin (Bos taurus, UniProt P02769); test: Counterscreen for inhibitors of T-cell receptor (TCR)-CD3 interaction: Fluorescence-based biochemical high throughput dose response assay to identify inhibitors of T-cell receptor (TCR)-CD3 interaction using a TAMRA-labeled BSA probe.; assay type: functional
Chain of Albumin (P02769 whole entry): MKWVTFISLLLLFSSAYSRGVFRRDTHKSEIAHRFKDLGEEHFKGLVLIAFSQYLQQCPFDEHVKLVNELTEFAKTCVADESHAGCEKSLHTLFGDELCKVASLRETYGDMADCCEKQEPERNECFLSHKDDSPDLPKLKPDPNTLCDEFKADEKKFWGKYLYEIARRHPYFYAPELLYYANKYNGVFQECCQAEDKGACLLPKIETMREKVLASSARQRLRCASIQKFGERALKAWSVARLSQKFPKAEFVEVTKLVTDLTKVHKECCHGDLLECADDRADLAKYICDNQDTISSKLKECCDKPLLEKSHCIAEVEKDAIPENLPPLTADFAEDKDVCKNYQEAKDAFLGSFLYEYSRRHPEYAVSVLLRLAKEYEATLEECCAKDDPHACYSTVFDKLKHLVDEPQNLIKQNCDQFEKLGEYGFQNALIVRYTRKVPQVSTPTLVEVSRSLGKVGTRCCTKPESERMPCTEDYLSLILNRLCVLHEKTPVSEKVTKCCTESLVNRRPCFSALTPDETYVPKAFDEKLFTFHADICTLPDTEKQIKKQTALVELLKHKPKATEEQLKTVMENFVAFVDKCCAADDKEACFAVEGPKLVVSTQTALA

Chain of Cytochrome P450 3A4 (P08684 whole entry): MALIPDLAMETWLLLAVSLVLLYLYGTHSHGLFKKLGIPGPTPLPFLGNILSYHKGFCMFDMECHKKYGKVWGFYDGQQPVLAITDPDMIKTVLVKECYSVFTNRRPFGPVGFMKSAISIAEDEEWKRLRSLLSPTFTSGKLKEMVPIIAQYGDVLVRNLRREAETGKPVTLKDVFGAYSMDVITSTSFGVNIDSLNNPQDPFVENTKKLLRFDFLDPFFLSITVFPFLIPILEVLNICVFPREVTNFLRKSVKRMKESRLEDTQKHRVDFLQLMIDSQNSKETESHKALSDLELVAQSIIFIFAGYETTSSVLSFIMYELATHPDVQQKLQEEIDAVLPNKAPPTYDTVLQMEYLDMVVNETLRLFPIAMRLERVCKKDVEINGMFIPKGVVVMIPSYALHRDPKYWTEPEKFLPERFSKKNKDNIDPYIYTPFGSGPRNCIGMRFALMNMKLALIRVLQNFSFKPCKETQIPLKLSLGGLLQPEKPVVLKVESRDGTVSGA
Chain of Cytochrome P450 2C9 (P11712 whole entry): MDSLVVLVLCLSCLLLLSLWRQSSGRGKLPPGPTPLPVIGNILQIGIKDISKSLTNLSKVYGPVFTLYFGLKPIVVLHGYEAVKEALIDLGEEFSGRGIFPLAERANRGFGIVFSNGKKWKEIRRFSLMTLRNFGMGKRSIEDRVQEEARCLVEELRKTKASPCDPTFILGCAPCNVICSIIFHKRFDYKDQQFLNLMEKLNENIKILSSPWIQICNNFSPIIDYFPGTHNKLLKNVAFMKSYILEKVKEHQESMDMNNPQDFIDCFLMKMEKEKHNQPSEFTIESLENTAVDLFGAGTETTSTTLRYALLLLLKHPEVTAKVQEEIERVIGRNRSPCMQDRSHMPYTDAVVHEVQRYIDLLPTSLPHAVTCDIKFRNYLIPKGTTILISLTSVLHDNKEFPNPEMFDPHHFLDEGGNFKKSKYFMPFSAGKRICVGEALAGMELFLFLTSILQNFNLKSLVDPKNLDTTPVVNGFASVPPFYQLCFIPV

Compound: Fc1ccc(Nc2nc(-c3ccncc3)cs2)cc1
- IC50 [1]: > 83.2 µM (inactive)
- IC50 [2]: > 109 µM (inactive)

Compound: COc1ccccc1CCn1cnc(-c2ccc(Cl)cc2)c1CC(C)C
- AC50 [3]: 17.7 µM (active)
- IC50 (cells [4]): 14.2 µM (inactive)
- AC50 [5]: 19 µM (active)
- IC50 [6]: 6.55 µM (active)
- EC50 (cells [7]): > 30 µM (inactive)
- AC50 [8]: 23.2 µM (active)
- AC50 [9]: > 52 µM (inactive)
- AC50 [10]: 31.2 µM (active)
- EC50 [11]: 2.37 µM (active)

Compound: Cc1ccccc1Cn1c2ccccc2c2cnn(CC(=O)NCCCN3CCN(C)CC3)c(=O)c21
- AC50 [12]: 9.43 µM (active)

Compound: CN(C)CCN(C(=O)c1ccc2ccccc2c1)c1nc2cc3c(cc2s1)OCO3
- AC50 [12]: 28.3 µM (active)

Compound: C(=C\n1nnc2ccccc21)/c1ccccn1
- EC50 [13]: > 67.5 µM (inactive)

Compound: CSc1ccc(NC(=O)NCCCN2CCN(c3ccccc3F)CC2)cc1
- AC50 (Cytochrome P450 3A4): inconclusive
- IC50 (Protein skinhead-1): > 100 µM (inactive)

Compound: Cc1ccc(OCc2ccc(Br)cc2)c([N+](=O)[O-])n1
- EC50 [13]: > 67.5 µM (inactive)

Compound: O=C(Nc1cc2nn(-c3ccccc3)nc2cc1Cl)c1ccco1
- IC50 (Protein skinhead-1): > 100 µM (inactive)

Compound: C[C@@H]1C=C[C@](Cc2ccccc2)(C(=O)NCC2CC2)N1C(=O)c1ccccc1
- IC50 (Protein skinhead-1): > 100 µM (inactive)

Compound: COc1ccc2cc3cc(C(=O)NC4CC4)sc3nc2c1
- AC50 [3]: 4.27 µM (active)
- EC50 [14]: 6.66 µM (inconclusive)
- AC50 [5]: 3.86 µM (active)
- EC50 [15]: 7.47 µM (active)
- EC50 [16]: 5.41 µM (active)
- AC50 [8]: 29.1 µM (active)
- AC50 [9]: > 52 µM (inactive)
- AC50 [10]: > 52 µM (inactive)

Compound: Fc1ccccc1-c1nc(-c2ccncc2)no1
- IC50 (Protein skinhead-1): 25.1 µM (active)

Compound: N=C(N)SCc1ccccc1Cl
- IC50 (cells [4]): > 29.9 µM (inactive)
- IC50 [6]: 5.21 µM (active)
- EC50 (cells [7]): > 29.9 µM (inactive)
- EC50 [17]: 121 µM (active)
- EC50 [11]: 1.42 µM (active)

Compound: CCCCCNC(=O)C(c1ccncc1)n1c(=O)c(-c2cc3ccccc3[nH]2)nc2ccccc21 (centres undefined)
- AC50 [18]: 2.62 µM (active)
- AC50 [19]: 4 µM (active)
- AC50 [20]: 7.8 µM (active)
- AC50 [21]: 4.68 µM (active)
- AC50 [22]: 31.9 µM (active)

Compound: c1ccc2c(CC3=NCCN3)cccc2c1 [NAPHAZOLINE HYDROCHLORIDE]
- IC50 (cells [4]): > 29.9 µM (inactive)
- IC50 [6]: 1.15 µM (active)
- EC50 (cells [7]): > 29.9 µM (inactive)
- EC50 [11]: 0.14 µM (active)

Compound: COc1cccc(S(=O)(=O)Nc2ccc3c(c2)[C@@H]2C[C@H](CC(=O)NCc4ccc(Cl)cc4)O[C@@H](CO)[C@@H]2O3)c1
- AC50 [23]: > 39 µM (inactive)
- AC50 [24]: 5.66 µM (active)

Compound: C=CCOc1c(Br)cc(CNc2ccc(NC(=O)C(C)C)c(OC)c2)cc1OC
- AC50 (Cytochrome P450 2C9): 0.00562 µM (inconclusive)
- AC50 [22]: 63.1 µM (active)

Compound: COCC1CCN(Cc2nc(-c3cccs3)no2)C1 (centres undefined)
- EC50 [13]: > 67.5 µM (inactive)

Compound: CO[C@H]1CN(C)C(=O)c2cc(NC(=O)c3ccc(-c4ccccc4)cc3)ccc2OC[C@H](C)NC[C@H]1C
- AC50 [23]: 10.1 µM (active)
- AC50 [24]: 5.36 µM (active)

Compound: O=C1/C(=C/Nc2ccccc2O)c2ccccc2C(=O)N1c1nccs1
- AC50 [25]: > 70 µM (inactive)
- EC50 [26]: > 99 µM (inactive)
- EC50 [27]: > 99 µM (inactive)
- IC50 (Albumin): > 94.1 µM (inactive)

Compound: Cc1cccc(C(=O)NCC(=O)NNC(=O)c2ccccc2O)c1
- IC50 (Albumin): > 94 µM (inactive)
